Where only a bound is given, the exact number is not on record here.

In test [1] the target is Bacterial leucyl aminopeptidase (Vibrio proteolyticus, UniProt Q01693). Briefly: Inhibition of Aeromonas proteolytica leucyl aminopeptidase using L-leucine para-notroanilide as substrate assessed as release of para-nitroaniline by Dixon plot analysis.
For the next test, the target named is T1, Aminopeptidase N (Sus scrofa, UniProt P15145).
T1 sequence (P15145 whole entry): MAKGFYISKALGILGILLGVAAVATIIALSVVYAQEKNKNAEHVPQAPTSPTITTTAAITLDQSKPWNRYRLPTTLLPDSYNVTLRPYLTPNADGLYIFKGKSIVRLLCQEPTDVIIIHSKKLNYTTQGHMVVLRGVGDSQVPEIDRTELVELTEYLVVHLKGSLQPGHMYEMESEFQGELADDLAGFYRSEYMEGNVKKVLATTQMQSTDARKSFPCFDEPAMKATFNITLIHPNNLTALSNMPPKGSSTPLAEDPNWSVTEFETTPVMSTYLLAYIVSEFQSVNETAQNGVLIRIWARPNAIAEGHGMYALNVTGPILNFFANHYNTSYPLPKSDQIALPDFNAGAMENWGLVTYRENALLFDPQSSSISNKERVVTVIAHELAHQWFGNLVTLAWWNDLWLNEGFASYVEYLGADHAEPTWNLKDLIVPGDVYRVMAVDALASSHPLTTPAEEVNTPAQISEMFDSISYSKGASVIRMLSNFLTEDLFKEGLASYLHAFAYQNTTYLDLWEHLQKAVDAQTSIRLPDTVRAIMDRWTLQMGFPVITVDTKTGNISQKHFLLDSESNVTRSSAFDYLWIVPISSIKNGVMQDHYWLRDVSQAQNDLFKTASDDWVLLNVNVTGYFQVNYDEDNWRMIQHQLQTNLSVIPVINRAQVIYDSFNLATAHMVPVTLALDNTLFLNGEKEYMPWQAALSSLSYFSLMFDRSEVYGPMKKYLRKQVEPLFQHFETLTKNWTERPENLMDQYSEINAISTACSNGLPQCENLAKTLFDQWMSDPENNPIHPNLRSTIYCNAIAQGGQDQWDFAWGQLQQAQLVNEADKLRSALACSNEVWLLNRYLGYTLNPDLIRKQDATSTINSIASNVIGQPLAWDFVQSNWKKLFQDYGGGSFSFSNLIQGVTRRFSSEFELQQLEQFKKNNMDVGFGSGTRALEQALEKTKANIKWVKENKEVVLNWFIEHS
Briefly: Inhibition of porcine kidney APN using L-leucine para-notroanilide as substrate assessed as release of para-nitroaniline by Dixon plot analysis.

Bacterial leucyl aminopeptidase, sequence (Q01693 whole entry): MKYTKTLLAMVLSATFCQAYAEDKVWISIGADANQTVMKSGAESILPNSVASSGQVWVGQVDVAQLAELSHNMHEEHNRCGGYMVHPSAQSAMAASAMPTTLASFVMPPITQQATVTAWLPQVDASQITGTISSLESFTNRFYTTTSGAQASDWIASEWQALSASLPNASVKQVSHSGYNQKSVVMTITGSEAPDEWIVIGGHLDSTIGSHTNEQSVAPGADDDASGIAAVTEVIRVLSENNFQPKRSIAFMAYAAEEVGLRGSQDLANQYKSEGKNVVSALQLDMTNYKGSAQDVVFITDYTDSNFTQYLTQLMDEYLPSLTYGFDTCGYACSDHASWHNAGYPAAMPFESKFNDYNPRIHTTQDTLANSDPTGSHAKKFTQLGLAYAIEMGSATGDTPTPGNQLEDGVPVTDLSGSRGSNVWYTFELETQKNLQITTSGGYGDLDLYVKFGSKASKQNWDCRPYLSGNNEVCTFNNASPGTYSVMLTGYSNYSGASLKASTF

As to `NC1CCc2ccccc2CC1=O` (stereo unspecified), the IC50 in test [1] is 900 µM. On to `N[C@@H]1[C@H](O)Cc2ccccc2C[C@@H]1O`, for which the IC50 at Aminopeptidase N is above 1000 µM. Further, in test [1], the Ki came out at 78 µM.

Consider `N[C@H]1Cc2ccccc2CC(=O)[C@H]1O` (racemic), for which the IC50 at Aminopeptidase N is above 1000 µM. Further, the Ki in test [1] was determined as 0.01 µM. As to `N[C@@H]1C(=O)Cc2ccccc2C[C@@H]1O` (racemic), the concentration for half-maximal inhibition (IC50) (at Aminopeptidase N; in test [1]) was above 1000 µM throughout. As for `N[C@H]1Cc2ccccc2C[C@@H](O)C1=O` (racemic), the IC50 on Aminopeptidase N is above 100 µM. Also, in test [1], the Ki was 4 µM. `N[C@H]1Cc2ccccc2C[C@H](O)C1=O` (racemic): the values for the Ki (at Aminopeptidase N; in test [1]) were 42 µM and 24 µM, respectively.

A word on the IC50: it is the midpoint of a concentration-inhibition curve. For orientation: Ki means a dissociation constant, usually derived from enzyme kinetics or from competition with a known ligand.
